As usually defined, the IC50 is the concentration needed to halve the response being measured.

The target of test [1] is T1, recombinant human PDE4B (Homo sapiens, UniProt Q07343).
T1 construct: amino acid 305-end; GST (N); host or cells: Sf9 insect cells (baculovirus)
The test can be described thus: In vitro inhibitory activity against PDE 4B enzyme (fluorescence polarization). The test is classed as biochemical. Particulars: 1 μM cAMP substrate. A general note: Polarisation of emitted light reports the rotation of a fluorescent probe.

For test [2], the system named is cigarette smoke-induced rat acute lung injury model. The test can be described thus: Pharmacodynamic study in cigarette smoke-induced rat acute lung injury model. Type of test: in vivo, Sprague-Dawley rats. Particulars: rats, atomized 0.05 or 0.15 mg/mL for 30 min daily. As to the method: Experimental Example 7: Pharmacodynamic study in cigarette smoke-induced rat acute lung injury model
Male Sprague-Dawley rats (supplied by Shanghai SLAC Laboratory Animal Co., Ltd.), SPF grade, approximately 200 g.
Procedures • 1. Animals were randomly divided into 6 groups according to body weight after arrival and a one-week acclimation; • 2. On days 1-3 of the experiment, the corresponding compound of each group was atomized for 30 min. Then the animals in the model group and the treatment groups were exposed to cigarette smoke for 1 h, and after a 4-h interval, the animals were exposed to cigarette smoke again for 1 h. Cigarette smoke was given twice daily for 3 consecutive days. The control group animals were exposed to room air; • 3. On day 4 of the experiment, the corresponding compound of each group was atomized for 30 min, and then the animals in the model group and the treatment groups were given the atomized 150 μg/mL LPS for 15 min by inhalation. After 3 h (from the time starting atomization), the animals were exposed to cigarette smoke for 1 h, and then the lung function (Penh and F) of the animals was examined; bronchoalveolar lavage fluid (BALF) was collected for cell counting after the animals were euthanized with CO2. • 4. […]

Test [3] concerns the target T2, CYP2D6 (Homo sapiens, UniProt P10635).
T2 construct: co-incubated with human liver microsomes; from tissue; host or cells: human liver microsomes
The test can be described thus: Inhibition of human liver microsomal CYP2D6 (dextromethorphan probe). Type of test: in vitro ADME. Particulars: human liver microsomes. As to the method: (§1) Experimental Example 6: Inhibitory effect on activity of isoenzymes (CYP1A2, CYP2C9, CYP2C19, CYP2D6 and CYP3A4) of human liver microsomal cytochrome P450 A total of 5 specific probe substrates of 5 isoenzymes of CYP, namely phenacetin (CYP1A2), diclofenac (CYP2C9), (S)-mephenytoin (CYP2C19), dextromethorphan (CYP2D6) and midazolam (CYP3A4) were each co-incubated with human liver microsomes and the compound of formula (I), and then reduced nicotinamide adenine dinucleotide phosphate (NADPH) was added to initiate the reaction. After the reaction was completed, the samples were treated, and the concentrations of 5 metabolites (acetaminophen, 4′-hydroxydiclofenac, 4′-hydroxymephenytoin, dextrorphan and l′-hydroxymidazolam) generated from the specific substrates were quantitatively detected by lC-MS/MS to calculate the correcnondino- half maximal inhibitory concentrationc (IC50)
In general terms: Microsomes from liver hold many membrane-bound enzymes, among them those of drug oxidation.

Test [4] deals with T3, CYP2C9 (Homo sapiens, UniProt P11712).
T3 construct: co-incubated with human liver microsomes; from tissue; host or cells: human liver microsomes
The test can be described thus: Inhibition of human liver microsomal CYP2C9 (diclofenac probe). Type of test: in vitro ADME. Particulars: human liver microsomes. As to the method:
as §1

Test [5] relates to TNF-α in human peripheral blood mononuclear cells. The test can be described thus: Inhibitory activity against TNF-α in LPS-stimulated hPBMCs (ELISA). Particulars: PBMC, 1 ng/mL LPS, 24 h, read-out: hPBMC IC50 (TNF-α). Type of test: cell-based. An excerpt:
Experimental Example 8: In vitro detection of the inhibitory activity of the compound against TNF-α in human peripheral blood mononuclear cells Objective: to measure the anti-inflammatory activity at cellular level of the test compound based on the level of TNF-α in human peripheral blood mononuclear cells (hPBMCs).
Procedures: • 1. Normal human whole blood was collected into an EDTA anticoagulation tube; • 2. The PBMC was separated by Ficoll density gradient centrifugation and counted, and the cell concentration was adjusted to 2×10^6 cells/mL; • 3. To each well of a U-bottom 96-well plate were added 2×10^5 cells, 1 ng/mL LPS, and solutions of the compound of formula (I) in DMSO at concentrations of […], 1 μM, 100 nM, 10 nM, 1 nM, 100 pM and 10 pM, with a system volume of 200 μL per well; • 4. The mixture was incubated for 24 h, and then the supernatant was collected; • 5. The level of TNF-α in the supernatant was detected by ELISA, an inhibition curve was fitted using Graphpad Prism software, and the IC50 was calculated.

The target in test [6] is T4, CYP1A2 (Homo sapiens, UniProt P05177).
T4 construct: co-incubated with human liver microsomes; from tissue; host or cells: human liver microsomes
T4 sequence (P05177 1-516): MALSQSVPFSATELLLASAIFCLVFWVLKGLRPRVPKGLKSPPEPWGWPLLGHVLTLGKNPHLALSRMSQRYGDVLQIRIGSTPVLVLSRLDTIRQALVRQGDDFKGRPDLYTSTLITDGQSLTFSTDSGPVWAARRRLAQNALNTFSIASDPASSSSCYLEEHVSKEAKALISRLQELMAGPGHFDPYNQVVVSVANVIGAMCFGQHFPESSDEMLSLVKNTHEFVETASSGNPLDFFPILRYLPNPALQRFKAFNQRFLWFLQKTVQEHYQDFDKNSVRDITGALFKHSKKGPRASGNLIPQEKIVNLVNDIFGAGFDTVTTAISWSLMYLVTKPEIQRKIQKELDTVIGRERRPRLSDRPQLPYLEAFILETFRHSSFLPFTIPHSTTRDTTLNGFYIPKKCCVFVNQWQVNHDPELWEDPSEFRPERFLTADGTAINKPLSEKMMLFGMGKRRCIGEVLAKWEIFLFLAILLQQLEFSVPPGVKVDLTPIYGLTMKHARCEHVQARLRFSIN
The test can be described thus: Inhibition of human liver microsomal CYP1A2 (phenacetin probe). The test is classed as in vitro ADME. Particulars: human liver microsomes. The procedure: as §1

T2 sequence (P10635 whole entry): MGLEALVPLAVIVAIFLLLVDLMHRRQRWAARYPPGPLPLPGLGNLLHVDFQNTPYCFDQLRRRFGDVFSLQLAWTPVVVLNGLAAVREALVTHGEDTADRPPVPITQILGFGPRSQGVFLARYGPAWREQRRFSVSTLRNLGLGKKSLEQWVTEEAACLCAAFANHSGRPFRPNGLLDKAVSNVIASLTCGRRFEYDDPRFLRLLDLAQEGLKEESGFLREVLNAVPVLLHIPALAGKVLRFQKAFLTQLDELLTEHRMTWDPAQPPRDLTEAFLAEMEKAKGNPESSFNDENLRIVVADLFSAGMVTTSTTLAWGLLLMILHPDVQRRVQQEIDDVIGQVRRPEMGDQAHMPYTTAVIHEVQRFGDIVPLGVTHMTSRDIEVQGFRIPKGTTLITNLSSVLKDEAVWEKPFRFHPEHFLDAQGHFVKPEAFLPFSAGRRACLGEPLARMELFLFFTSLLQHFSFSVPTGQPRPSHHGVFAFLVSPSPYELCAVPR
T3 sequence (P11712 whole entry): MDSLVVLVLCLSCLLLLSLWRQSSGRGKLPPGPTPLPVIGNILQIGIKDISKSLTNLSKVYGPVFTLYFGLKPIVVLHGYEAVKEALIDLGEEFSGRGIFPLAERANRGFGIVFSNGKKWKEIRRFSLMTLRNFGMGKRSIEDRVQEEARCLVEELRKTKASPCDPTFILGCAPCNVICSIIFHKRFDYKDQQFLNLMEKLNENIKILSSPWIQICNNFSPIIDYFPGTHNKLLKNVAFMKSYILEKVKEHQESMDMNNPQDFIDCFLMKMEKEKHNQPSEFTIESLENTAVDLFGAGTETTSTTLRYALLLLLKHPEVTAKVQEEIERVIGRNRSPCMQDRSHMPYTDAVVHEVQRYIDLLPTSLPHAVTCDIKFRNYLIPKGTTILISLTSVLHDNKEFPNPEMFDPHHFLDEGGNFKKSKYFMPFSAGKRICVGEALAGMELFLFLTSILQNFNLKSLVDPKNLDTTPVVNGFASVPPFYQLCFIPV
T1 sequence (Q07343 305-736 limits assumed): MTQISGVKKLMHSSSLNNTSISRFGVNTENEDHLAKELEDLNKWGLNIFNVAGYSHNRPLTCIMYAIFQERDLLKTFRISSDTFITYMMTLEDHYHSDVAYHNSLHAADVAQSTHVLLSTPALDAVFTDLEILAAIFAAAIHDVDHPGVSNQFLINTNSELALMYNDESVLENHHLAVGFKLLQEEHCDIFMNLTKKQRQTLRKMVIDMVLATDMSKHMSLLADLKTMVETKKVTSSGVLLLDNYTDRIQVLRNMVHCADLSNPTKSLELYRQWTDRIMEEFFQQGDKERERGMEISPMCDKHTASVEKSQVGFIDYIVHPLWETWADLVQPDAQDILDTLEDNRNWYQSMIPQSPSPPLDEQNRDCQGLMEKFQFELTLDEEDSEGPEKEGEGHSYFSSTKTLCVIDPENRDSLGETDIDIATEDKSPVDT

In the case of `CCOc1cc2c(cc1OC)-c1c/c(=N\c3c(C)cc(C)cc3C)n(CCNC(=O)c3c(O)nnn3C)c(=O)n1CC2` [Compound of formula (I)], the 50% inhibitory concentration (IC50) was 0.41 nM in test [1]; at least 50 µM in test [3]; 31 µM in test [4]; 29.2 nM in test [5]; at least 50 µM in test [6]. Further, the “Number of white blood cells in the bronchoalveolar lavage fluid” value in test [2] (FIG. 5) is recorded as “effectively reduce”. The “Airway resistance index Penh (Mch challenge pulmonary function test)” value in test [2] (FIG. 6) is reported as “effectively reduce”.

These data come from patent US20230060174A1, “PHARMACEUTICAL COMPOSITION OF TRICYCLIC PDE3/PDE4 DUAL INHIBITOR COMPOUND” (CHIA TAI TIANQING PHARMACEUTICAL GROUP CO., LTD., priority 2020, published 2023).
